From US12173039B1, “TPL2 inhibiting agents, uses thereof, and detection of TPL2” (Washington University, priority 2021, dated 2024)

How the values were obtained:
MAPK activity = test: Immunoblots of MAPK activity in murine PDAC lines KP2 and KI; type: cell-based; conditions: 24 hours, serum-free
Method: Standard immunoblotting procedure was followed. Cells were washed twice with ice-cold 1×PBS and lysed with ice-cold triton-X lysis buffer (25 mM Tris, pH 7.4, 150 mM NaCl, 5 mM EDTA, 1% Triton-X) containing 1× protease (10 μg mL-1 leupeptin, 700 ng mL-1 pepstatin, 170 ng mL-1 aprotinin, 1 mM PMSF) and phosphatase (10 mM NaF, 1 mM Na3VO4, 1 mM Na4P2O^7, 5 mM Na b-glycerophosphate) inhibitors. Lysates were quantified by Bradford assay (Thermo Scientific), normalized for concentration, and reduced and denatured with 6×SDS sample buffer followed by boiling for 5 minutes. 20-40 μg of protein per sample was resolved by SDS-PAGE, blotted on PVDF membrane and probed with primary antibodies (Cell Signaling Technologies: p-ERK1/2 (#4370), p-MEK1/2 (#9154), ERK1/2 (#4695), MEK1/2 (#8727), p-p105 (#4806), NFS2KB1 p105/p50 (#3035), p-IRAK4 (#11927), IRAK4 (#4363), ubiquitin (#43124), anti-HA (#3724), p-p90RSK (#11989), RSK1/2/3 (#9355), p-TPL2 (#4491), PARP (#9532), p-B-RAF S445 (#2696), BRAF (#9433S). Santa Cruz Biotechnology: GAPDH (#sc-32233), p-p65 […] (#sc101752). Thermo Fisher Scientific: p-55 TPL2 (#PA5-36635). EMD Millipore: IRAK4 (#07-418). R&D systems: TPL2/MAP3K8 (#MAB4586). Novus Biologicals: anti-AU1 (#NB600-453). Abcam: p-p65 […] (#ab194726)). […]

[1] = test system: p-FAK, p-ERK, total FAK, and FoxM1; test: Reverse-phase protein array (RPPA) on HPNE-KRAS^G12D cells overexpressing IRAK4; type: cell-based, human
Method: All lysates were prepared according to sample preparation guidelines provided by MD Anderson Cancer Center (MDACC). HPNE-KRAS^G12D were infected with retroviral particles containing AU1-tagged IRAK4 WT or vector control in presence of 8 μg mL-1 polybrene, selected with blasticidin (10 μg mL-1) and RPPA was performed. For drug treatment, IRAK4 overexpressing cells were treated with AS2444697 2 μM or vehicle (DMSO) for 24 hours. For evaluation of TPL2 WT and E188K, 293T cells were transfected in duplicates with Vector (pbabe-puro), TPL2 WT or TPL2 E188K along with equal amount of polyethylenimine. Cells were harvested 48 hrs post-transfection and lysates were prepared and sent for RPPA. For both RPPA experiments, lysates were quantified by Bradford assay (Thermo Scientific), equalized for concentration, and denatured and reduced by adding 4×SDS sample buffer (without bromophenol blue) and boiling for 5 minutes.

KRAS-mutant PDAC lines = test: Drug response and viability assay (AlamarBlue), PDAC lines; type: cell-based, human; conditions: various KRAS-mutant PDAC lines; 5 and 7 days
Method: Cells were seeded at 1500-2500 cells per well in triplicates, in 96 well format. Next day, appropriate inhibitor was added in serial dilution from 1.00×102 μM or indicated single doses. Vehicle (DMSO) was added to match volume of inhibitor used for highest concentration. […] Fluorescence at 585 nm (excitation 555 nm) was measured by SpectraMax i3 Microplate Reader. Raw values were normalized to vehicle, analyzed and graphed using GraphPad Prism v7/8 software.

KP2 cells = test: Anchorage independent soft agar growth assay, KP2 cells; type: cell-based, murine
Method: Cells were seeded at 5000-15000 cells in 0.3% noble agar-DMEM suspension per well, in triplicate, in 24 well plate. For drug treatment, compound was added to cell suspension at 1× concentration. Seeded cells were fed with fresh 0.6% agar-DMEM mix once every 7-12 days. […] After 3-6 weeks, colonies were counted under microscope and imaged. Colony count was normalized to control and graphed in GraphPad Prism v7/8.

p-MEK, p-ERK, and p-RSK = test: Immunoblots of MAPK pathway markers in human cell lines; type: cell-based
Method: Standard immunoblotting procedure was followed. Cells were washed twice with ice-cold 1×PBS and lysed with ice-cold triton-X lysis buffer (25 mM Tris, pH 7.4, 150 mM NaCl, 5 mM EDTA, 1% Triton-X) containing 1× protease (10 μg mL-1 leupeptin, 700 ng mL-1 pepstatin, 170 ng mL-1 aprotinin, 1 mM PMSF) and phosphatase (10 mM NaF, 1 mM Na3VO4, 1 mM Na4P2O^7, 5 mM Na b-glycerophosphate) inhibitors. Lysates were quantified by Bradford assay (Thermo Scientific), normalized for concentration, and reduced and denatured with 6×SDS sample buffer followed by boiling for 5 minutes. 20-40 μg of protein per sample was resolved by SDS-PAGE, blotted on PVDF membrane and probed with primary antibodies (Cell Signaling Technologies: p-ERK1/2 (#4370), p-MEK1/2 (#9154), ERK1/2 (#4695), MEK1/2 (#8727), p-p105 (#4806), NFS2KB1 p105/p50 (#3035), p-IRAK4 (#11927), IRAK4 (#4363), ubiquitin (#43124), anti-HA (#3724), p-p90RSK (#11989), RSK1/2/3 (#9355), p-TPL2 (#4491), PARP (#9532), p-B-RAF S445 (#2696), BRAF (#9433S). Santa Cruz Biotechnology: GAPDH (#sc-32233), p-p65 S536 (#sc101752). Thermo Fisher Scientific: p-55 TPL2 (#PA5-36635). EMD Millipore: IRAK4 (#07-418). R&D systems: TPL2/MAP3K8 (#MAB4586). Novus Biologicals: anti-AU1 (#NB600-453). Abcam: p-p65 S276 (#ab194726)). Membranes were incubated with appropriate HRP-conjugated secondary antibodies (anti-mouse or anti-rabbit, (1:5000 dilution), Jackson Laboratory) and imaged using chemiluminescent substrate. Additional steps for immunoprecipitation include incubation of soluble fraction lysate with anti-HA magnetic beads (Thermo Scientific cat #88837) overnight at 4° C., washing, and elution using 1×SDS sample buffer and boiling as mentioned in manufacturer's protocol.

With CC[C@@H]1[C@H](F)C(=O)N[C@@H]1COc1nccc2cc(C(N)=O)c(OC)cc12 [PF06650833, 1-(((2S,3S,4S)-3-ethyl-4-fluoro-5-oxopyrrolidin-2-yl)methoxy)-7-methoxyisoquinoline-6-carboxamide] as the molecule, how does the “MAPK activity (immunoblot)” value (MAPK activity) read?
The value was “dose-dependently suppressed”.

And the “MAPK target proteins (RPPA)” value [1]?
Its value is “suppressed”.

What about the “IRAK4-induced increase in p-FAK, p-ERK, total FAK, and FoxM1 (RPPA)” value ([1]; 24 hours) of the same molecule?
Its value is “reversed”.

What about the viability (KRAS-mutant PDAC lines) of the same molecule?
The viability was “dose-dependently reduced”.

And the “AI growth in soft agar” value (KP2 cells)?
The value was “dose-dependently suppressed”.

What about the “p-MEK and p-ERK” value (p-MEK, p-ERK, and p-RSK; 293T cells transfected with oncogenic BRAF^V600E, 24 hours) of the same molecule?
The value was “neither TPL2i nor IRAK4i suppressed”.

And the “p-MEK and p-ERK / MAPK activity” value (p-MEK, p-ERK, and p-RSK; BxPc-3 PDAC line (BRAF mutation, WT KRAS))?
Its value is “neither TPL2i nor IRAK4i suppressed”.

And the “KRAS mutant-upregulated p-MEK, p-ERK, and p-RSK levels” value (p-MEK, p-ERK, and p-RSK; HPNE-KRAS^G12D and 293T-KRAS^G12V, 24 hours, serum-free)?
The value was “dose-dependently blocked”.

And the “p-MEK and p-ERK levels enhanced by ectopic TPL2” value (p-MEK, p-ERK, and p-RSK; Pa01C and HPAC cells overexpressing TPL2, serum-free)?
The value was “blocked”.

And the “MAPK activity (immunoblot)” value (p-MEK, p-ERK, and p-RSK; Pa01C, Pa02C, Pa03C and HPAC, 16 hours)?
The value was “dose-dependently suppressed”.
